Key:
Type in all cases: in vivo
[1] = system: Amaranthus retoflexus (AMARE); test: Post-emergence herbicidal glasshouse test, AMARE; set-up: dose or concentration left out as unconfirmed; conditions: evaluated after 13 days, five-point scale
Description: (§1) Seeds of a variety of test species are sown in standard soil in pots (Lolium perenne (LOLPE), Amaranthus retoflexus (AMARE), Abutilon theophrasti (ABUTH), Setaria faberi (SETFA), Echinochloa crus-galli (ECHCG), Ipomoea hederacea (IPOHE)). After cultivation for one day (pre-emergence) or after 8 days cultivation (post-emergence) under controlled conditions in a glasshouse (at 24/16° C., day/night; 14 hours light; 65% humidity), the plants are sprayed with an aqueous spray solution derived from the formulation of the technical active ingredient in acetone/water (50:50) solution containing 0.5% Tween 20 (polyoxyethelyene sorbitan monolaurate, CAS RN 9005-64-5). Compounds are applied at 125 g/h unless otherwise indicated. The test plants are then grown in a glasshouse under controlled conditions in a glasshouse (at 24/16° C., day/night; 14 hours light; 65% humidity) and watered twice daily. After 13 days for pre and post-emergence, the test is evaluated for the percentage damage caused to the plant. The biological activities are shown in the following table on a five-point scale (5=80-100%; 4=60-79%; 3=40-59%; 2=20-39%; 1=0-19%). “—” denotes not tested on this species or data not captured.

[2] = system: Echinochloa crus-galli (ECHCG); test: Pre-emergence herbicidal glasshouse test, ECHCG; conditions: 125 g/h, evaluated after 13 days, five-point scale
Description: as §1

[3] = system: Ipomoea hederacea (IPOHE); test: Post-emergence herbicidal glasshouse test, IPOHE; conditions: 125 g/h, evaluated after 13 days, five-point scale
Description: as §1

[4] = system: Echinochloa crus-galli (ECHCG); test: Post-emergence herbicidal glasshouse test, ECHCG; conditions: 125 g/h, evaluated after 13 days, five-point scale
Description: as §1

[5] = system: Amaranthus retoflexus (AMARE); test: Pre-emergence herbicidal glasshouse test, AMARE; conditions: 125 g/h, evaluated after 13 days, five-point scale
Description: as §1

Setaria faberi (SETFA) [6] = test: Pre-emergence herbicidal glasshouse test, SETFA; conditions: 125 g/h, evaluated after 13 days, five-point scale
Description: as §1

[7] = system: Ipomoea hederacea (IPOHE); test: Pre-emergence herbicidal glasshouse test, IPOHE; conditions: 125 g/h, evaluated after 13 days, five-point scale
Description: as §1

Setaria faberi (SETFA) [8] = test: Post-emergence herbicidal glasshouse test, SETFA; conditions: 125 g/h, evaluated after 13 days, five-point scale
Description: as §1

Structure (SMILES) | percentage damage caused to the plant, POST Application AMARE [1] | percentage damage caused to the plant, PRE Application ECHCG [2] | percentage damage caused to the plant, POST Application IPOHE [3] | percentage damage caused to the plant, POST Application ECHCG [4] | percentage damage caused to the plant, PRE Application AMARE [5] | percentage damage caused to the plant, PRE Application SETFA (Setaria faberi (SETFA) [6]) | percentage damage caused to the plant, PRE Application IPOHE [7] | percentage damage caused to the plant, POST Application SETFA (Setaria faberi (SETFA) [8])
Cn1nnnc1NC(=O)c1ccc(OC(F)F)c(N2CCOC2=O)c1Cl [Compound 1.037] | 5 (5=80-100%) | 5 (5=80-100%) | 5 (5=80-100%) | 5 (5=80-100%) | 5 (5=80-100%) | 5 (5=80-100%) | 5 (5=80-100%) | 5 (5=80-100%)
Cn1nnnc1NC(=O)c1ccc(OC(F)(F)F)c(NC(=O)OCC(F)F)c1Cl [Compound 1.011] | 4 (4=60-79%) | 5 (5=80-100%) | 4 (4=60-79%) | 5 (5=80-100%) | 5 (5=80-100%) | 5 (5=80-100%) | 4 (4=60-79%) | 5 (5=80-100%)
Cn1nnnc1NC(=O)c1ccc(OC(F)F)c(NC(=O)OCCS(C)(=O)=O)c1Cl [Compound 1.028] | 5 (5=80-100%) | 3 (3=40-59%) | 3 (3=40-59%) | 2 (2=20-39%) | 5 (5=80-100%) | 1 (1=0-19%) | 2 (2=20-39%) | –
Cn1nnnc1NC(=O)c1ccc(OC(F)(F)F)c(NC(=O)OCCS(C)(=O)=O)c1Cl [Compound 1.013] | 4 (4=60-79%) | 2 (2=20-39%) | 2 (2=20-39%) | 5 (5=80-100%) | 5 (5=80-100%) | 2 (2=20-39%) | 2 (2=20-39%) | 5 (5=80-100%)
CCOC(=O)N(CC)c1c(OC(F)(F)F)ccc(C(=O)Nc2nnnn2C)c1Cl [Compound 1.031] | 5 (5=80-100%) | 5 (5=80-100%) | 5 (5=80-100%) | 5 (5=80-100%) | 5 (5=80-100%) | 5 (5=80-100%) | 5 (5=80-100%) | 5 (5=80-100%)
COCCCOC(=O)Nc1c(OC(F)(F)F)ccc(C(=O)Nc2nnnn2C)c1Cl [Compound 1.019] | 5 (5=80-100%) | 5 (5=80-100%) | 4 (4=60-79%) | 5 (5=80-100%) | 3 (3=40-59%) | 2 (2=20-39%) | 4 (4=60-79%) | 5 (5=80-100%)
CCOC(=O)N(CC)c1c(OC(F)F)ccc(C(=O)Nc2nnnn2C)c1Cl [Compound 1.044] | 5 (5=80-100%) | 5 (5=80-100%) | 4 (4=60-79%) | 5 (5=80-100%) | 5 (5=80-100%) | 4 (4=60-79%) | 2 (2=20-39%) | 5 (5=80-100%)
CCOC(=O)N(C)c1c(OC(F)F)ccc(C(=O)Nc2nnnn2C)c1Cl [Compound 1.041] | 5 (5=80-100%) | 5 (5=80-100%) | 5 (5=80-100%) | 5 (5=80-100%) | 5 (5=80-100%) | 4 (4=60-79%) | 4 (4=60-79%) | 5 (5=80-100%)
CCCOC(=O)Nc1c(OC(F)F)ccc(C(=O)Nc2nnnn2C)c1Cl [Compound 1.016] | 4 (4=60-79%) | 4 (4=60-79%) | 3 (3=40-59%) | 5 (5=80-100%) | 5 (5=80-100%) | 3 (3=40-59%) | 2 (2=20-39%) | 5 (5=80-100%)
COCCOC(=O)Nc1c(OC(F)F)ccc(C(=O)Nc2nnnn2C)c1Cl [Compound 1.018] | 4 (4=60-79%) | 4 (4=60-79%) | 4 (4=60-79%) | 5 (5=80-100%) | 4 (4=60-79%) | 3 (3=40-59%) | 2 (2=20-39%) | 5 (5=80-100%)
Cn1nnnc1NC(=O)c1ccc(OC(F)F)c(NC(=O)OC2COC2)c1Cl [Compound 1.026] | 5 (5=80-100%) | 5 (5=80-100%) | 5 (5=80-100%) | 5 (5=80-100%) | 5 (5=80-100%) | 3 (3=40-59%) | 4 (4=60-79%) | –
COC(=O)N(C)c1c(OC(F)(F)F)ccc(C(=O)Nc2nnnn2C)c1Cl [Compound 1.029] | 5 (5=80-100%) | 5 (5=80-100%) | 5 (5=80-100%) | 5 (5=80-100%) | 5 (5=80-100%) | 5 (5=80-100%) | 5 (5=80-100%) | –
CCN(C(=O)OC)c1c(OC(F)(F)F)ccc(C(=O)Nc2nnnn2C)c1Cl [Compound 1.030] | 5 (5=80-100%) | 5 (5=80-100%) | 5 (5=80-100%) | 5 (5=80-100%) | 5 (5=80-100%) | 5 (5=80-100%) | 4 (4=60-79%) | –

From patent US12637437B2, “Herbicidal compounds” (SYNGENTA CROP PROTECTION AG, priority 2021, dated 2026)
